Results published in US6395758B1, “Small molecule carbamates or ureas for vision and memory disorders” (GPI Nil Holdings, Inc., priority 1998, dated 2002).
Marks after values point to notes of the source that are not given here.

Columns and labels:
[1] = tested on: retinal ganglion cell axons; assay: Protection of retinal ganglion cell axons 14 days after optic nerve transection (Table E); format: in vivo; conditions: ± SEM
Text: Efficacy of representative compounds from different immunophilin ligand series in protecting retinal ganglion cell axons from degeneration following optic nerve transection is set forth in Table E.

[2] = Clearance (Table E comments); format: in vitro ADME; conditions: no method given
[3] = target: FKBP12 (Homo sapiens, UniProt P62942); assay: Ki test: inhibition of peptidyl-prolyl isomerase (rotamase) activity, chymotrypsin-coupled assay; format: biochemical; conditions: apparent Ki, Table II
Chain of FKBP12 (P62942 whole entry, species assumed): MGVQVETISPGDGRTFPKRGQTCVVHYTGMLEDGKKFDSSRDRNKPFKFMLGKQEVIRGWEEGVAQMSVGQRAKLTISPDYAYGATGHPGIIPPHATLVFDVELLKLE
Text: The inhibition of the prolyl peptidyl cis-trans isomerase activity of FKBP may be measured as an indicator of this affinity. Inhibition of the peptidyl-prolyl isomerase (rotamase) activity of the compounds used in the inventive methods and pharmaceutical compositions can be evaluated by known methods described in the literature (Harding et al., Nature, 1989, 341:758-760; Holt et al. J. Am. Chem. Soc., 115:9923-9938). […] The cis-trans isomerization of an alanine-proline bond in a model substrate, N-succinyl-[…]-nitroanilide, is monitored spectrophotometrically in a chymotrypsin-coupled assay, which releases para-nitroanilide from the trans form of the substrate. The inhibition of this reaction caused by the addition of different concentrations of inhibitor is determined, and the data is analyzed as a change in first-order rate constant as a function of inhibitor concentration to yield the apparent Ki values. […] The absorbance at 390 nm versus time is monitored for 90 seconds using a spectrophotometer and the rate constants are determined from the absorbance versus time data files.

[4] = tested on: streptozotocin-induced diabetic rat; assay: Streptozotocin-induced diabetic sensory neuropathy, hot plate and tail flick; format: in vivo, Male Wistar rats; conditions: treated for 6 weeks at 10 mg/kg s.c., started six weeks after streptozotocin
Procedure: The procedure involved using Male Wistar rats which were given a single injection of streptozotocin (65 mg/kg i.v.). Blood glucose levels were determined weekly for the first three weeks and on the last week of the experiment. Animals were evaluated weekly for signs of sensory neuropathy using the conventional hot plate and tail flick apparatus test procedures.

[5] = tested on: retinal ganglion cells and optic nerve axons; assay: Optic nerve transection, 14 or 28 day treatment, evaluation 90 days after transection; format: in vivo, Sprague Dawley rats; conditions: 90 days after ONT; for increased ON axon density: adjusted for optic nerve diameter; for ON axon Count: axonal density multiplied by ON area; for Proximal optic nerve myelin basic protein Density, % recovery: ± SEM
Text: All eyes and optic nerves stumps were removed.

[6] = tested on: retinal ganglion cells and their axons; assay: Example 18: optic nerve transection, 28 day GPI-1046, sacrifice at 90 days; format: in vivo, Sprague Dawley rats; conditions: 10 mg/kg/day s.c. for 28 days; 90 days after transection
Text: Transection of the mammalian optic nerve results in a brief period of abortive regeneration, but the majority of axotomized neurons die and the axons from many persisting ganglion cells die back beyond the optic nerve head.

[7] = tested on: retina (neovascularization, INL, GCL, ONL neurons); assay: Streptozotocin induced diabetes, retinal neovascularization and neuron loss; format: in vivo
[8] = tested on: retinal ganglion cells, optic nerve axons and myelin; assay: Retinal ischemia (intraocular pressure raised above arterial pressure), evaluation 28 days later; format: in vivo, rats
Text: Retinal ganglion cells were retrogradely labeled in adult rats by bilateral injection of fluorogold in their lateral geniculate nuclei. Labeled ganglion cells in the normal rat retina appear as white profiles against the dark background (FIG. 1A). Complete retinal ischemia was produced by infusing normal saline solution into the retinal vitreous cavity of each eye until the intraocular pressure exceeded arterial blood pressure. 28 days after the ischemic episode extensive degeneration of retinal ganglion cell was evidenced by massive reduction in the density of fluorogold labeled cells (FIG. 1B).
Optic nerves from vehicle treated cases examined 28 days after a 1 hour retinal ischemic episode are characterized by a decreased density of optic nerve axons and the appearance of numerous degenerating myelin figures (bright white filled circles).

[9] = tested on: aged impaired mice; assay: Morris watermaze, spatial learning and memory in aged rodents; format: in vivo, C57BL/6N-Nia mice; conditions: 10 mg/kg daily
Text: The Morris watermaze is widely used for assessing spatial memory formation and retention in experimental animals. The test depends on the animal's ability to utilize spatial visual information in order to locate a submerged escape platform in a water tank. It is important that the tank itself be as devoid of specific visual features as possible—thus, it is always circular in shape, the sides are kept smooth and in uniform dull colors, and the water is rendered opaque with nontoxic watercolor pigment or powdered milk. This is to ensure that the animal navigates only by the use of more distant visual cues, or by the use of intra-maze cues specifically provided by the experimenter. The animals' path, speed, and swim time are tracked with a ceiling camera for later computerized analysis. Over the course of several successive trials, spatial learning can therefore be defined as a drop of distance swum, or time elapsed, from placement in the tank until escape onto the invisible platform. The procedure involved using three-month old (young) and 18-19 month old male C57BL/6N-Nia (aged) mice which habituated to the well known and conventional Morris watermaze during a 4 trials/day, 3-4 day visible platform training phase. […] Swim Distances (cm) were analyzed in a 7×5 ANOVA including Groups and Blocks (1-5) as factors in the analysis, treating Blocks as a repeated measure.

[10] = 28 day treatment beginning 8 weeks after onset of streptozotocin diabetes

O=C(SCCCc1ccccc1)[C@@H]1CCCN1C(=O)NC12CC3CC(CC(C3)C1)C2 [B]
RT97 + RGC axon density 14 days after ON transection (% ON axons rescued) [1]: 100.0% ± 5.2% SEM

O=C(SCCCc1ccccc1)[C@@H]1CCCN1S(=O)(=O)Cc1ccccc1 [C]
RT97 + RGC axon density 14 days after ON transection (% ON axons rescued) [1]: 60.4% ± 3.1% SEM | Clearance [2]: 31.1 µL/min

CCC(C)CNC(=O)N1CCC[C@H]1C(=O)OCCCc1cccnc1 (stereo partly drawn) [Compound 1, 3-(3-pyridyl)-1-propyl (2S)-1-[(2-methylbutyl)carbamoyl]pyrrolidine-2-carboxylate]
Ki [3]: 0.07 µM

CCC(C)(C)NC(=O)N1CCC[C@H]1C(=O)OCCCc1cccnc1 [Compound 2, 3-(3-Pyridyl)-1-propyl (2S)-1-[(1′,1′-dimethylpropyl)carbamoyl]pyrrolidine-2-carboxylate]
Ki [3]: 0.742 µM

O=C(OCCCc1cccnc1)[C@@H]1CCCN1C(=O)NC1CCCCC1 [Compound 4, 3-(3-pyridyl)-1-propyl (2S)-1-[(cyclohexyl)carbamoyl]-pyrrolidine-2-carboxylate]
Ki [3]: 1.48 µM

O=C(OCCCc1cccnc1)[C@@H]1CCCN1C(=S)NC12CC3CC(CC(C3)C1)C2 [Compound 5, 3-(3-pyridyl)-1-propyl (2S)-1-[(1-adamantyl)thiocarbamoyl]-pyrrolidine-2-carboxylate]
Ki [3]: 0.116 µM

CCC(C)(C)C(=O)C(=O)N1CCCC[C@H]1C(=O)SCCC(c1ccccc1)c1ccccc1 [Compound K]
Clearance [2]: 4.5 µL/min

CCC(C)(C)C(=O)C(=O)N1CCCCC1C(=O)OC(CCc1ccccc1)CCc1ccccc1 (stereo not drawn) [E]
Clearance [2]: 41.8 µL/min

CCC(C)(C)C(=O)C(=O)N1CCC[C@H]1C(=O)SCCCc1cccnc1 [GPI 1046]
RT97 + RGC axon density 14 days after ON transection (% ON axons rescued) [1]: 60.5% ± 3.9 SEM | latency, hot plate and tail flick [4]: improvement in latency | % RGCs Rescued ([5]; 14 days GPI 1046): 5.3% | % surviving RGCs with ON axons ([5]; 14 days GPI 1046): 33.6% | ON head area (% sham) ([5]; 14 days GPI 1046): 76% | Spared RGC population ([5]; 14 days GPI 1046): 20,275 | increased ON axon density ([5]; 14 days GPI 1046): 1.5× | ON axon Count ([5]; 14 days GPI 1046): 6820 | Distal optic nerve myelin basic protein loss ([5]; 14 days GPI 1046, cross sectional area multiplied by myelin density): 47% loss | Distal optic nerve shrinkage ([5]; 14 days GPI 1046, cross sectional area vs sham): 33% shrinkage | ON Axon density ([5]; 14 days GPI 1046, mean ± SEM RT97 labeled axons in 200 μm × 200 μm region): 569 ± 23 | Proximal optic nerve myelin basic protein Density, % recovery ([5]; 14 days GPI 1046, % areal coverage of cross section): 1.6 ± 3.0 SEM % recovery | RGC Counts ([5]; 28 days GPI 1046 10 mg/kg/day sc, mean density ± SEM of Fluoro-gold labeled RGC in 400 μm × 400 μm gridfields): 67.9 ± 5.8 | % surviving RGCs with ON axons ([5]; 28 days GPI 1046): 81.4% | Distal optic nerve myelin preservation ([5]; 28 days GPI 1046): 99% myelin | ON head area (% sham) ([5]; 28 days GPI 1046): 95%* | Spared RGC population ([5]; 28 days GPI 1046): 28,096* | increased ON axon density ([5]; 28 days GPI 1046): 5.0× | ON axon Count ([5]; 28 days GPI 1046): 22,861* | Distal optic nerve, less shrinkage ([5]; 28 days GPI 1046, cross sectional area vs sham): 56% less shrinkage* | Proximal optic nerve myelin basic protein Density, % recovery ([5]; 28 days GPI 1046): 70 ± 6.3 SEM % recovery | density of myelin, distal stump ([5]; first 14 days GPI 1046): slightly increase the density of myelin | shrinkage of the distal stump ([5]; first 14 days GPI 1046): did not protect against shrinkage | protection of optic nerve axons ([5]; first 14 days GPI 1046, proximal stump): 5.3% | cross sectional shrinkage of the distal stump ([5]; first 28 days GPI 1046): prevented cross sectional shrinkage | fascicular staining pattern for myelin basic protein, proximal stump ([5]; first 28 days GPI 1046): dramatic preservation of the fascicular staining pattern | myelin levels, distal stump, % of normal levels ([5]; first 28 days GPI 1046): 99% | Clearance [2]: 63.8 µL/min | axons in the proximal stump of the transected nerve (RT97) [6]: preserved the axons of virtually all protected neurons | ganglion cell population spared [6]: 25% | neovascularization in the PR, ONL, OPL and INL [7, 10]: reduced neovascularization | neuronal loss in the ONL [7, 10]: did not appear to protect against neuronal loss | loss of neurons in the INL and GCL ([7]; 28 day treatment beginning 8 weeks after onset, vs streptozotocin/vehicle controls): appeared to decrease the loss of neurons | protection of fluorogold labeled retinal ganglion cells ([8]; 10 mg/kg s.c. 1 hour prior to ischemia and 10 mg/kg/day for next four days, 28 days after ischemia): noticeable protection of a large proportion of the vulnerable ganglion cell population | density of degenerating myelin figures in optic nerve ([8]; 28 days after 1 hour retinal ischemic episode): dramatically decreased the density of degenerating myelin figures | spatial memory performance, retention testing (swim distance), aged impaired GPI-1046 vs aged impaired vehicle ([9]; retention testing after 3 weeks of dosing, F1.69=8.11, P=0.006): significantly enhanced spatial memory performance | retention phase swim distance, young vs aged impaired GPI-1046 ([9]; F1.69=3.09, P=0.08): no longer any statistically significant difference

CCC(C)(C)C(=O)C(=O)N1CCCC[C@H]1C(=O)O [G]
RT97 + RGC axon density 14 days after ON transection (% ON axons rescued) [1]: 34.0% ± 4.8% SEM

CCC(C)(C)C(=O)C(=O)N1CCCC[C@H]1C(N)=O [H]
RT97 + RGC axon density 14 days after ON transection (% ON axons rescued) [1]: 30.3% ± 8.0% SEM

O=C(OCCCc1cccnc1)[C@@H]1CCCN1C(=S)NC1CCCCC1 [I]
RT97 + RGC axon density 14 days after ON transection (% ON axons rescued) [1]: 23.8% ± 5.3 SEM | Clearance [2]: 8.0 µL/min

CCC(C)(C)C(=O)C(=O)N1CCC[C@H]1C(=O)CCCCc1cccnc1 [J]
RT97 + RGC axon density 14 days after ON transection (% ON axons rescued) [1]: 15.8% ± 4.8% SEM | Clearance [2]: 1.5 µL/min

CCC(C)(C)C(=O)C(=O)N1CCC[C@H]1C(=O)O [L]
RT97 + RGC axon density 14 days after ON transection (% ON axons rescued) [1]: 7.8% ± 3.0% SEM | Clearance [2]: 5.2 µL/min

CCC(C)(C)C(=O)C(=O)N1CCC[C@H]1C(=O)SCCC(c1ccccc1)c1ccccc1 [M]
RT97 + RGC axon density 14 days after ON transection (% ON axons rescued) [1]: −6.3% ± 3.9% SEM | Clearance [2]: 12.5 µL/min

CN(C)C(=O)N1CCC[C@H]1C(=O)SCCCc1ccccc1 [N]
Clearance [2]: 21.9 µL/min
